The test system of the series is K-Ras wild type expressing 293 cells. Conditions: FIG. 6B.

Protocol: SW480 and HT29 cells are both propagated at 37° C./5% CO2 and in RPMI+10% fetal bovine serum (FBS) and DMEM+10% FBS, respectively. Upon plating cells in microtiter plates, compounds are supplemented at various concentrations and viability is assessed within 24-72 hrs by manual or automated (Countess (Invitrogen)) trypan blue cytometry.

The IC50 is the point on the concentration scale where inhibition reaches its midpoint. For `Cc1ccc(Nc2nc(N/N=C/c3cccc([N+](=O)[O-])c3O)nc(N3CCOCC3)n2)cc1` [A0383, 2-(hydroxynitroso)-6-[(1E)-(2-{4-[(4-methylphenyl)amino]-6-(morpholin-4-yl)-1,3,5-triazin-2-yl}hydrazin-1-ylidene)methyl]phenol], the general toxicity entry (293 cells not overexpressing mutant K-Ras, dosages 50-100 µM) is reported as “lack of general toxicity”. In addition, the IC50 (read-out: IC50 (cell death, unspecific toxicity), K-Ras wild type expressing 293 cells) was over 100 µM.

For the origin of these results see patent publication US10668076B1, “Compositions and methods of targeting mutant K-Ras” (NantBio, Inc., priority 2011, dated 2020).
